Assay results: ChEMBL document CHEMBL3045812, “Synthesis of fatty acid Schiff base esters as potential antimicrobial and chemotherapeutic agents” (Med Chem Res, 2013)
Converted amounts (≈) assume the structure as drawn. The source made the active and inactive calls. The calls are words filed in the database; no cut-off is given here.

Columns and labels:
Candida albicans [1] = assay: Antifungal activity against Candida albicans MTCC 1637 after 24 hr by microtiter broth dilution method; format: functional; conditions: MTCC 1637, 24 h
Staphylococcus aureus [2] = assay: Antibacterial activity against Staphylococcus aureus MTCC 96 after 24 hr by microtiter broth dilution method; format: functional; conditions: MTCC 96, 24 h
HeLa = assay: Cytotoxicity against Homo sapiens (human) HeLa cells by tetrazolium-reduction assay; format: functional, cell-based
Candida albicans [3] = assay: Antifungal activity against Candida albicans MTCC 854 after 24 hr by microtiter broth dilution method; format: functional; conditions: MTCC 854, 24 h
Pseudomonas aeruginosa = assay: Antibacterial activity against Pseudomonas aeruginosa MTCC 2453 after 24 hr by microtiter broth dilution method; format: functional
Raoultella planticola = assay: Antibacterial activity against Raoultella planticola MTCC 530 at 1.4 to 300 ug/ml after 24 hr by microtiter broth dilution method; format: functional, organism-based
Candida albicans [4] = assay: Antifungal activity against Candida albicans MTCC 3958 after 24 hr by microtiter broth dilution method; format: functional; conditions: MTCC 3958, 24 h
Candida albicans [5] = assay: Antifungal activity against Candida albicans MTCC 3018 after 24 hr by microtiter broth dilution method; format: functional; conditions: MTCC 3018, 24 h
Pichia sporocuriosa = assay: Antifungal activity against Issatchenkia hanoiensis MTCC 4755 after 24 hr by microtiter broth dilution method; format: functional
Bacillus subtilis = assay: Antibacterial activity against Bacillus subtilis MTCC 121 after 24 hr by microtiter broth dilution method; format: functional
N2a = assay: Cytotoxicity against Mus musculus (mouse) Neuro2a cells by tetrazolium-reduction assay; format: functional, cell-based
Candida albicans [6] = assay: Antifungal activity against Candida albicans MTCC 227 after 24 hr by microtiter broth dilution method; format: functional; conditions: MTCC 227, 24 h
Nakaseomyces glabratus [7] = assay: Antifungal activity against Candida glabrata MTCC 3019 after 24 hr by microtiter broth dilution method; format: functional
[Candida] aaseri [8] = Antifungal activity against Candida aaseri MTCC 1962 after 24 hr by microtiter broth dilution method; format: functional
A549 = assay: Cytotoxicity against Homo sapiens (human) A549 cells by tetrazolium-reduction assay; format: functional, cell-based
Candida albicans [9] = assay: Antifungal activity against Candida albicans MTCC 7315 after 24 hr by microtiter broth dilution method; format: functional; conditions: MTCC 7315, 24 h
Micrococcus luteus = assay: Antibacterial activity against Micrococcus luteus MTCC 2470 at 1.4 to 300 ug/ml after 24 hr by microtiter broth dilution method; format: functional, organism-based
Pichia kudriavzevii = assay: Antifungal activity against Pichia kudriavzevii MTCC 3020 after 24 hr by microtiter broth dilution method; format: functional
Candida albicans [10] = assay: Antifungal activity against Candida albicans MTCC 183 after 24 hr by microtiter broth dilution method; format: functional; conditions: MTCC 183, 24 h
MCF7 = assay: Cytotoxicity against Homo sapiens (human) MCF7 cells by tetrazolium-reduction assay; format: functional, cell-based
MDA-MB-231 = assay: Cytotoxicity against Homo sapiens (human) MDA-MB-231 cells by tetrazolium-reduction assay; format: functional, cell-based
Staphylococcus aureus [11] = assay: Antibacterial activity against Staphylococcus aureus MLS16 MTCC 2940 after 24 hr by microtiter broth dilution method; format: functional; conditions: MLS16 MTCC 2940, 24 h
Escherichia coli = assay: Antibacterial activity against Escherichia coli MTCC 739 at 1.4 to 300 ug/ml after 24 hr by microtiter broth dilution method; format: functional, organism-based
Candida parapsilosis [12] = assay: Antifungal activity against Candida parapsilosis MTCC 1744 after 24 hr by microtiter broth dilution method; format: functional
HepG2 = assay: Cytotoxicity against Homo sapiens (human) HepG2 cells by tetrazolium-reduction assay; format: functional, cell-based
Candida albicans [13] = assay: Antifungal activity against Candida albicans MTCC 3017 after 24 hr by microtiter broth dilution method; format: functional
[Candida] aaseri [14] = Antifungal activity against Candida aaseri MTCC 1962 at 1.4 to 300 ug/ml after 24 hr by microtiter broth dilution method; format: functional, organism-based
Candida albicans [15] = assay: Antifungal activity against Candida albicans MTCC 3018 at 1.4 to 300 ug/ml after 24 hr by microtiter broth dilution method; format: functional, organism-based
Candida albicans [16] = assay: Antifungal activity against Candida albicans MTCC 3017 at 1.4 to 300 ug/ml after 24 hr by microtiter broth dilution method; format: functional, organism-based
Candida albicans [17] = assay: Antifungal activity against Candida albicans MTCC 7315 at 1.4 to 300 ug/ml after 24 hr by microtiter broth dilution method; format: functional, organism-based
Candida albicans [18] = assay: Antifungal activity against Candida albicans MTCC 854 at 1.4 to 300 ug/ml after 24 hr by microtiter broth dilution method; format: functional, organism-based
Nakaseomyces glabratus [19] = assay: Antifungal activity against Candida glabrata MTCC 3019 at 1.4 to 300 ug/ml after 24 hr by microtiter broth dilution method; format: functional, organism-based
Candida albicans [20] = assay: Antifungal activity against Candida albicans MTCC 1637 at 1.4 to 300 ug/ml after 24 hr by microtiter broth dilution method; format: functional, organism-based
Candida parapsilosis [21] = assay: Antifungal activity against Candida parapsilosis MTCC 1744 at 1.4 to 300 ug/ml after 24 hr by microtiter broth dilution method; format: functional, organism-based
Candida albicans [22] = assay: Antifungal activity against Candida albicans MTCC 227 at 1.4 to 300 ug/ml after 24 hr by microtiter broth dilution method; format: functional, organism-based
Candida albicans [23] = assay: Antifungal activity against Candida albicans MTCC 3958 at 1.4 to 300 ug/ml after 24 hr by microtiter broth dilution method; format: functional, organism-based
Candida albicans [24] = assay: Antifungal activity against Candida albicans MTCC 183 at 1.4 to 300 ug/ml after 24 hr by microtiter broth dilution method; format: functional, organism-based
[25] = Yamadazyma aaseri, MTCC 1962, 24 h
[26] = Lodderomyces parapsilosis, MTCC 1744, 24 h

SMILES	MIC (Candida albicans [1]) [µg/mL]	MIC (Staphylococcus aureus [2]) [µg/mL]	Activity (HeLa)	MIC (Candida albicans [3]) [µg/mL]	Activity (Raoultella planticola)	MIC (Candida albicans [4]) [µg/mL]	MIC (Candida albicans [5]) [µg/mL]	MIC (Bacillus subtilis)	Activity (N2a)	MIC (Candida albicans [6]) [µg/mL]	Activity (A549)	MIC (Candida albicans [9]) [µg/mL]	Activity (Micrococcus luteus)	MIC (Candida albicans [10]) [µg/mL]	IC50 (MCF7; mcf7)	IC50 (MDA-MB-231) [µM]	MIC (Staphylococcus aureus [11]) [µg/mL]	Activity (Escherichia coli)	Activity (HepG2)	MIC (Pichia sporocuriosa; MTCC 4755, 24 h) [µg/mL]	further results
CCCCCCCCCCCCCC(=O)Oc1ccc(/C=N/Cc2cccnc2)cc1	300 (≈ 710 µM)	75 (≈ 177 µM)	inactive	300 (≈ 710 µM)	inactive	300 (≈ 710 µM)	300 (≈ 710 µM)	inactive	inactive	300 (≈ 710 µM)	inactive	300 (≈ 710 µM)	inactive	300 (≈ 710 µM)	Not Active	26.6	75 (≈ 177 µM)	inactive	inactive		MIC (Pseudomonas aeruginosa): inactive; MIC (Pichia sporocuriosa): inactive; MIC (Nakaseomyces glabratus [7]): inactive; MIC ([Candida] aaseri [8]): inactive; MIC (Pichia kudriavzevii): inactive; MIC (Candida parapsilosis [12]): inactive; MIC (Candida albicans [13]; MTCC 3017, 24 h): 300 µg/mL (≈ 710 µM)
CCCCCCCCCCCC(=O)Oc1ccc(/C=N/Cc2cccnc2)cc1		150 (≈ 380 µM)	inactive		inactive			inactive	inactive		inactive		inactive			18.9	150 (≈ 380 µM)	inactive	inactive		Activity ([Candida] aaseri [14]): inactive; MIC (Pseudomonas aeruginosa): inactive; Activity (Candida albicans [15]): inactive; Activity (Candida albicans [16]): inactive; Activity (Candida albicans [17]): inactive; Activity (Candida albicans [18]): inactive; Activity (Nakaseomyces glabratus [19]): inactive; Activity (Candida albicans [20]): inactive; Activity (Candida parapsilosis [21]): inactive; Activity (Candida albicans [22]): inactive; IC50 (MCF7; Homo sapiens, MCF7, read-out: IC50): 17.6 µM; Activity (Candida albicans [23]): inactive; Activity (Candida albicans [24]): inactive
OC(Cn1cncn1)(Cn1cncn1)c1ccc(F)cc1F [FLUCONAZOLE]	64 (≈ 209 µM)			32 (≈ 104 µM)		64 (≈ 209 µM)	32 (≈ 104 µM)			32 (≈ 104 µM)		32 (≈ 104 µM)		32 (≈ 104 µM)						64 (≈ 209 µM)	MIC (Nakaseomyces glabratus [7]; MTCC 3019, 24 h): 64 µg/mL (≈ 209 µM); MIC ([Candida] aaseri [8]; [25]): 64 µg/mL (≈ 209 µM); MIC (Pichia kudriavzevii; MTCC 3020, 24 h): 128 µg/mL (≈ 418 µM); MIC (Candida parapsilosis [12]; [26]): 16 µg/mL (≈ 52.2 µM); MIC (Candida albicans [13]; MTCC 3017, 24 h): 64 µg/mL (≈ 209 µM)
CCCCCCCCCC(=O)Oc1ccc(/C=N/Cc2cccnc2)cc1	300 (≈ 819 µM)	37.5 (≈ 102 µM)	inactive	300 (≈ 819 µM)	inactive	300 (≈ 819 µM)	75 (≈ 205 µM)	inactive	inactive	300 (≈ 819 µM)	inactive	300 (≈ 819 µM)	inactive	300 (≈ 819 µM)			300 (≈ 819 µM)	inactive	inactive	75 (≈ 205 µM)	MIC (Pseudomonas aeruginosa; MTCC 2453, 24 h): 75 µg/mL (≈ 205 µM); MIC (Nakaseomyces glabratus [7]; MTCC 3019, 24 h): 150 µg/mL (≈ 409 µM); MIC ([Candida] aaseri [8]; [25]): 75 µg/mL (≈ 205 µM); MIC (Pichia kudriavzevii; MTCC 3020, 24 h): 150 µg/mL (≈ 409 µM); MIC (Candida parapsilosis [12]; [26]): 150 µg/mL (≈ 409 µM); MIC (Candida albicans [13]): inactive
CCCCCCCCCCCCCCCCCC(=O)Oc1ccc(/C=N/Cc2cccnc2)cc1		300 (≈ 627 µM)	inactive		inactive			inactive	inactive		inactive		inactive		Not Active	11.5	300 (≈ 627 µM)	inactive	inactive		Activity ([Candida] aaseri [14]): inactive; MIC (Pseudomonas aeruginosa; MTCC 2453, 24 h): 300 µg/mL (≈ 627 µM); Activity (Candida albicans [15]): inactive; Activity (Candida albicans [16]): inactive; Activity (Candida albicans [17]): inactive; Activity (Candida albicans [18]): inactive; Activity (Nakaseomyces glabratus [19]): inactive; Activity (Candida albicans [20]): inactive; Activity (Candida parapsilosis [21]): inactive; Activity (Candida albicans [22]): inactive; Activity (Candida albicans [23]): inactive; Activity (Candida albicans [24]): inactive
CCCCCCC(=O)Oc1ccc(/C=N/Cc2cccnc2)cc1	150 (≈ 462 µM)	37.5 (≈ 116 µM)	inactive	300 (≈ 925 µM)	inactive	150 (≈ 462 µM)	75 (≈ 231 µM)		inactive	75 (≈ 231 µM)	inactive	150 (≈ 462 µM)	inactive	300 (≈ 925 µM)	Not Active	15	150 (≈ 462 µM)	inactive	inactive	75 (≈ 231 µM)	MIC (Pseudomonas aeruginosa; MTCC 2453, 24 h): 37.5 µg/mL (≈ 116 µM); MIC (Bacillus subtilis; MTCC 121, 24 h): 300 µg/mL (≈ 925 µM); MIC (Nakaseomyces glabratus [7]): inactive; MIC ([Candida] aaseri [8]; [25]): 75 µg/mL (≈ 231 µM); MIC (Pichia kudriavzevii; MTCC 3020, 24 h): 75 µg/mL (≈ 231 µM); MIC (Candida parapsilosis [12]; [26]): 300 µg/mL (≈ 925 µM); MIC (Candida albicans [13]): inactive
